Measurements from ChEMBL document CHEMBL2375251, “Anticancer activity of novel hybrid molecules containing 5-benzylidene thiazolidine-2,4-dione” (Eur J Med Chem, 2013).
Activity calls are given as the source filed them. The calls are words filed in the database; no cut-off is given here.

Columns and labels:
U-937 [1] = assay: Induction of apoptosis in human U937 cells assessed as caspase-3-mediated PARP hydrolysis at 1 uM after 6 hrs by Western blot analysis; assay type: functional, cell-based
MOLT-3 [2] = assay: Induction of apoptosis in human MOLT3 cells assessed as caspase-3-mediated PARP hydrolysis at 1 uM after 6 hrs by Western blot analysis; assay type: functional, cell-based
MOLT-3 [3] = assay: Cytotoxicity against human MOLT3 cells after 4 hrs by MTT assay; assay type: functional, cell-based
HL-60 [4] = assay: Induction of apoptosis in human HL60 cells assessed as caspase9-mediated LEHD-pNA cleavage at 1 uM after 6 hrs by colorimetric assay; assay type: functional, cell-based
MOLT-3 [5] = assay: Induction of apoptosis in human MOLT3 cells assessed as caspase9-mediated LEHD-pNA cleavage at 1 uM after 6 hrs by colorimetric assay; assay type: functional, cell-based
U-937 [6] = assay: Induction of apoptosis in human U937 cells assessed as procaspase-3 activation at 1 uM after 6 hrs by Western blot analysis; assay type: functional, cell-based
U-937 [7] = assay: Cytotoxicity against human U937 cells after 4 hrs by MTT assay; assay type: functional, cell-based
HL-60 [8] = assay: Induction of apoptosis in human HL60 cells assessed as procaspase-7 activation at 1 uM after 6 hrs by Western blot analysis; assay type: functional, cell-based
HL-60 [9] = assay: Induction of apoptosis in human HL60 cells assessed as caspase 3/7-mediated DEVD-pNA cleavage at 1 uM after 6 hrs by colorimetric assay; assay type: functional, cell-based
CCRF-CEM = assay: Cytotoxicity against human CEM cells after 3 days by Coulter counter analysis; assay type: functional, cell-based; details: 72 h
U-937 [10] = assay: Induction of apoptosis in human U937 cells assessed as caspase 3/7-mediated DEVD-pNA cleavage at 1 uM after 6 hrs by colorimetric assay relative to control; assay type: functional
HL-60 [11] = assay: Induction of apoptosis in human HL60 cells assessed as procaspase-6 activation at 1 uM after 6 hrs by Western blot analysis; assay type: functional, cell-based
MOLT-3 [12] = assay: Induction of apoptosis in human MOLT3 cells assessed as cytochrome c release at 1 uM after 6 hrs by Western blot analysis; assay type: functional, cell-based
L1210 = assay: Cytotoxicity against mouse L1210 cells after 2 days by Coulter counter analysis; assay type: functional, cell-based; details: L1210, 48 h
U-937 [13] = assay: Induction of apoptosis in human U937 cells assessed as cytochrome c release at 1 uM after 6 hrs by Western blot analysis; assay type: functional, cell-based
HL-60 [14] = assay: Induction of apoptosis in human HL60 cells assessed as caspase-3-mediated PARP hydrolysis at 1 uM after 6 hrs by Western blot analysis; assay type: functional, cell-based
HL-60 [15] = assay: Induction of apoptosis in human HL60 cells assessed as caspase 8-mediated IETD-pNA cleavage at 1 uM after 6 hrs by colorimetric assay; assay type: functional, cell-based
U-937 [16] = assay: Induction of apoptosis in human U937 cells assessed as caspase 8-mediated IETD-pNA cleavage at 1 uM after 6 hrs by colorimetric assay; assay type: functional, cell-based
HL-60 [17] = assay: Induction of apoptosis in human HL60 cells assessed as appearance of apoptotic bodies at 1 uM after 6 hrs by Hoechst 33258 staining based fluorescence microscopy; assay type: functional, cell-based
HeLa = assay: Cytotoxicity against human HeLa cells after 4 days by Coulter counter analysis; assay type: functional, cell-based; details: 96 h
HL-60 [18] = assay: Induction of apoptosis in human HL60 cells assessed as procaspase-9 activation at 1 uM after 6 hrs by Western blot analysis; assay type: functional, cell-based
MOLT-3 [19] = assay: Induction of apoptosis in human MOLT3 cells assessed as procaspase-3 activation at 1 uM after 6 hrs by Western blot analysis; assay type: functional, cell-based
MOLT-3 [20] = assay: Induction of apoptosis in human MOLT3 cells assessed as chromatin hydrolysis at 1 uM after 6 hrs by agarose gel electrophoresis; assay type: functional, cell-based
HL-60 [21] = assay: Induction of apoptosis in human HL60 cells assessed as chromatin hydrolysis at 1 uM after 6 hrs by agarose gel electrophoresis; assay type: functional, cell-based
HL-60 [22] = assay: Induction of apoptosis in human HL60 cells assessed as procaspase-8 activation at 1 uM after 6 hrs by Western blot analysis; assay type: functional, cell-based
MOLT-3 [23] = assay: Induction of apoptosis in human MOLT3 cells assessed as procaspase-7 activation at 1 uM after 6 hrs by Western blot analysis; assay type: functional, cell-based
FM3A = assay: Cytotoxicity against mouse FM3A cells after 2 days by Coulter counter analysis; assay type: functional, cell-based; details: 48 h
U-937 [24] = assay: Induction of apoptosis in human U937 cells assessed as chromatin hydrolysis at 1 uM after 6 hrs by agarose gel electrophoresis; assay type: functional, cell-based
U-937 [25] = assay: Induction of apoptosis in human U937 cells assessed as hypodiploid DNA content at 3 uM after 6 hrs by propidium iodide staining-based flow cytometry relative to control; assay type: functional
HL-60 [26] = assay: Induction of apoptosis in human HL60 cells assessed as cytochrome c release at 1 uM after 6 hrs by Western blot analysis; assay type: functional, cell-based
MOLT-3 [27] = assay: Induction of apoptosis in human MOLT3 cells assessed as caspase 3/7-mediated DEVD-pNA cleavage at 1 uM after 6 hrs by colorimetric assay; assay type: functional, cell-based
U-937 [28] = assay: Induction of apoptosis in human U937 cells assessed as caspase 3/7-mediated DEVD-pNA cleavage at 1 uM after 6 hrs by colorimetric assay; assay type: functional, cell-based
MOLT-3 [29] = assay: Induction of apoptosis in human MOLT3 cells assessed as procaspase-6 activation at 1 uM after 6 hrs by Western blot analysis; assay type: functional, cell-based
HL-60 [30] = assay: Induction of apoptosis in human HL60 cells assessed as hypodiploid DNA content at 3 uM after 6 hrs by propidium iodide staining-based flow cytometry relative to control; assay type: functional
U-937 [31] = assay: Induction of apoptosis in human U937 cells assessed as caspase9-mediated LEHD-pNA cleavage at 1 uM after 6 hrs by colorimetric assay; assay type: functional, cell-based
MOLT-3 [32] = assay: Induction of apoptosis in human MOLT3 cells assessed as procaspase-8 activation at 1 uM after 6 hrs by Western blot analysis; assay type: functional, cell-based
U-937 [33] = assay: Induction of apoptosis in human U937 cells assessed as procaspase-6 activation at 1 uM after 6 hrs by Western blot analysis; assay type: functional, cell-based
HL-60 [34] = assay: Induction of apoptosis in human HL60 cells assessed as chromatin condensation at 1 uM after 6 hrs by Hoechst 33258 staining based fluorescence microscopy; assay type: functional, cell-based
U-937 [35] = assay: Induction of apoptosis in human U937 cells assessed as procaspase-7 activation at 1 uM after 6 hrs by Western blot analysis; assay type: functional, cell-based
HL-60 [36] = assay: Cytotoxicity against human HL60 cells after 4 hrs by MTT assay; assay type: functional, cell-based
U-937 [37] = assay: Induction of apoptosis in human U937 cells assessed as procaspase-8 activation at 1 uM after 6 hrs by Western blot analysis; assay type: functional, cell-based
HL-60 [38] = assay: Induction of apoptosis in human HL60 cells assessed as caspase 3/7-mediated DEVD-pNA cleavage at 1 uM after 6 hrs by colorimetric assay relative to control; assay type: functional
HL-60 [39] = assay: Induction of apoptosis in human HL60 cells assessed as procaspase-3 activation at 1 uM after 6 hrs by Western blot analysis; assay type: functional, cell-based
U-937 [40] = assay: Induction of apoptosis in human U937 cells assessed as appearance of apoptotic bodies at 1 uM after 6 hrs by Hoechst 33258 staining based fluorescence microscopy; assay type: functional, cell-based
MOLT-3 [41] = assay: Induction of apoptosis in human MOLT3 cells assessed as procaspase-9 activation at 1 uM after 6 hrs by Western blot analysis; assay type: functional, cell-based
U-937 [42] = assay: Induction of apoptosis in human U937 cells assessed as procaspase-9 activation at 1 uM after 6 hrs by Western blot analysis; assay type: functional, cell-based
MOLT-3 [43] = assay: Induction of apoptosis in human MOLT3 cells assessed as caspase 8-mediated IETD-pNA cleavage at 1 uM after 6 hrs by colorimetric assay; assay type: functional, cell-based
U-937 [44] = assay: Induction of apoptosis in human U937 cells assessed as chromatin condensation at 1 uM after 6 hrs by Hoechst 33258 staining based fluorescence microscopy; assay type: functional, cell-based
MOLT-3 [45] = assay: Induction of apoptosis in human MOLT3 cells assessed as caspase 3/7-mediated DEVD-pNA cleavage at 1 uM after 6 hrs by colorimetric assay relative to control; assay type: functional

Compound: C=C(Br)C(=O)Nc1cccc(/C=C2\SC(=O)N(Cc3ccc(C(F)(F)F)cc3)C2=O)c1
- Activity (U-937 [1]): Active
- Activity (MOLT-3 [2]): Active
- Activity (MOLT-3 [3]): Dose-dependent effect
- IC50 (MOLT-3 [3]; MOLT-3, 4 h): 710 nM
- Activity (HL-60 [4]): Active
- Activity (MOLT-3 [5]): Active
- Activity (U-937 [6]): Active
- Activity (U-937 [7]): Dose-dependent effect
- IC50 (U-937 [7]; U-937, 4 h): 500 nM
- Activity (HL-60 [8]): Active
- Activity (HL-60 [9]): Active
- IC50 (CCRF-CEM): 920 nM
- fold change (FC) (U-937 [10]): >10
- Activity (HL-60 [11]): Active
- Activity (MOLT-3 [12]): Active
- IC50 (L1210): 720 nM
- Activity (U-937 [13]): Active
- Activity (HL-60 [14]): Active
- Activity (HL-60 [15]): Active
- Activity (U-937 [16]): Active
- Activity (HL-60 [17]): Active
- IC50 (HeLa): 820 nM
- Activity (HL-60 [18]): Active
- Activity (MOLT-3 [19]): Active
- Activity (MOLT-3 [20]): inactive
- Activity (HL-60 [21]): Active
- Activity (HL-60 [22]): Active
- Activity (MOLT-3 [23]): Active
- IC50 (FM3A): 870 nM
- Activity (U-937 [24]): Active
- fold change (FC) (U-937 [25]): 16
- Activity (HL-60 [26]): Active
- Activity (MOLT-3 [27]): Active
- Activity (U-937 [28]): Active
- Activity (MOLT-3 [29]): Active
- fold change (FC) (HL-60 [30]): 23
- Activity (U-937 [31]): Active
- Activity (MOLT-3 [32]): Active
- Activity (U-937 [33]): Active
- Activity (HL-60 [34]): Active
- Activity (U-937 [35]): Active
- Activity (HL-60 [36]): Dose-dependent effect
- IC50 (HL-60 [36]; HL-60, 4 h): 450 nM
- Activity (U-937 [37]): Active
- fold change (FC) (HL-60 [38]): >5
- Activity (HL-60 [39]): Active
- Activity (U-937 [40]): Active
- Activity (MOLT-3 [41]): Active
- Activity (U-937 [42]): Active
- Activity (MOLT-3 [43]): Active
- Activity (U-937 [44]): Active
- fold change (FC) (MOLT-3 [45]): >2
